Assay results taken from patent US6825172B2, “3-descladinosyl-6-O-carbamoyl and 6-O-carbonoyl macrolide antibacterial agents” (Janssen Pharmaceutica, NV, priority 2002, dated 2004).
Converted amounts (≈) assume the structure as drawn. Like-named read-outs stand apart in the source and are kept apart here.

What was measured:
Assay in all cases: MIC, microdilution broth method (NCCLS)
Assay type in all cases: cell-based
E. faecalis ATCC29212 = details: Enterococcus faecalis, read-out: MIC Values, C: E. faecalis ATCC29212
Protocol: (§1) Minimal inhibitory concentration (MIC) has been an indicator of in vitro antibacterial activity widely used in the art. The in vitro antimicrobial activity of the compounds was determined by the microdilution broth method following the test method from the National Committee for Clinical Laboratory Standards (NCCLS). This method is described in the NCCLS Document M7-A4, Vol.17, No.2, “Methods for Dilution Antimicrobial Susceptibility Test for Bacteria that Grow Aerobically—Fourth Edition”, which is incorporated herein by reference.
(§2) In this method two-fold serial dilutions of drug in cation adjusted Mueller-Hinton broth are added to wells in microdilution trays. The test organisms are prepared by adjusting the turbidity of actively growing broth cultures so that the final concentration of test organism after it is added to the wells is approximately 5×10^4 CFU/well.
(§3) Following inoculation of the microdilution trays, the trays are incubated at 35 °C for 16-20 hours and then read. […] The amount of growth in the wells containing the test compound is compared with the amount of growth in the growth-control wells (no test compound) used in each tray. As set forth in Table 1, compounds of the present invention were tested against a variety of Gram positive and Gram negative pathogenic bacteria resulting in a range of activities depending on the organism tested.

S. pneumoniae ATCC49619 = details: Streptococcus pneumoniae, read-out: MIC Values, D: S. pneumoniae ATCC49619
Protocol: as §1, §2, §3

S. aureus ATCC29213 = details: Staphylococcus aureus, read-out: MIC Values, B: S. aureus ATCC29213
Protocol: as §1, §2, §3

[1] = Table 1, 6-Carbamoyl-3-Acyl Macrolide Derivatives
[2] = Table 2, 3,6-Dicarbamoyl Macrolide Derivatives

MIC (E. faecalis ATCC29212; [1]) [µg/mL]	MIC (S. pneumoniae ATCC49619; [1]) [µg/mL]	MIC (S. aureus ATCC29213; [1]) [µg/mL]	MIC (E. faecalis ATCC29212; [2]) [µg/mL]	MIC (S. pneumoniae ATCC49619; [2]) [µg/mL]	MIC (S. aureus ATCC29213; [2]) [µg/mL]	Compound
			0.5 (≈ 0.54 µM)	0.06 (≈ 0.0649 µM)	1 (≈ 1.08 µM)	CC[C@H]1OC(=O)[C@H](C)[C@@H](OC(=O)N(C)OC)[C@H](C)[C@@H](O[C@@H]2O[C@H](C)C[C@H](N(C)C)[C@H]2O)[C@](C)(OC(=O)NC/C=C/c2ccc(-c3ncccn3)cc2)C[C@@H](C)C(=O)[C@H](C)[C@H]2NC(=O)O[C@@]21C [Compound 68]
			0.5 (≈ 0.534 µM)	0.06 (≈ 0.064 µM)	0.5 (≈ 0.534 µM)	CC[C@H]1OC(=O)[C@H](C)[C@@H](OC(=O)N(CC)CC)[C@H](C)[C@@H](O[C@@H]2O[C@H](C)C[C@H](N(C)C)[C@H]2O)[C@](C)(OC(=O)NC/C=C/c2ccc(-c3cnccn3)cc2)C[C@@H](C)C(=O)[C@H](C)[C@H]2NC(=O)O[C@@]21C [Compound 69]
			0.5 (≈ 0.54 µM)	0.06 (≈ 0.0649 µM)	1 (≈ 1.08 µM)	CC[C@H]1OC(=O)[C@H](C)[C@@H](OC(=O)N(CC)CC)[C@H](C)[C@@H](O[C@@H]2O[C@H](C)C[C@H](N(C)C)[C@H]2O)[C@](C)(OC(=O)NC/C=C/c2ccc(-n3cccn3)cc2)C[C@@H](C)C(=O)[C@H](C)[C@H]2NC(=O)O[C@@]21C [Compound 70]
			1 (≈ 1.07 µM)	0.06 (≈ 0.064 µM)	1 (≈ 1.07 µM)	CC[C@H]1OC(=O)[C@H](C)[C@@H](OC(=O)N(CC)CC)[C@H](C)[C@@H](O[C@@H]2O[C@H](C)C[C@H](N(C)C)[C@H]2O)[C@](C)(OC(=O)NC/C=C/c2ccc(-c3cccnn3)cc2)C[C@@H](C)C(=O)[C@H](C)[C@H]2NC(=O)O[C@@]21C [Compound 71]
			0.5 (≈ 0.54 µM)	0.06 (≈ 0.0648 µM)	0.5 (≈ 0.54 µM)	CC[C@H]1OC(=O)[C@H](C)[C@@H](OC(=O)N(CC)CC)[C@H](C)[C@@H](O[C@@H]2O[C@H](C)C[C@H](N(C)C)[C@H]2O)[C@](C)(OC(=O)NC/C=C/c2ccc(-n3cncn3)cc2)C[C@@H](C)C(=O)[C@H](C)[C@H]2NC(=O)O[C@@]21C [Compound 72]

The next lines start with the compound.

Compound	MIC (E. faecalis ATCC29212; [1]) [µg/mL]	MIC (S. pneumoniae ATCC49619; [1]) [µg/mL]	MIC (S. aureus ATCC29213; [1]) [µg/mL]	MIC (E. faecalis ATCC29212; [2]) [µg/mL]	MIC (S. pneumoniae ATCC49619; [2]) [µg/mL]	MIC (S. aureus ATCC29213; [2]) [µg/mL]
CC[C@H]1OC(=O)[C@H](C)[C@@H](OC(=O)Cc2cccnc2)[C@H](C)[C@@H](O[C@@H]2O[C@H](C)C[C@H](N(C)C)[C@H]2O)[C@](C)(OC(=O)NC/C=C/c2cnc(C(C)(C)C)nc2)C[C@@H](C)C(=O)[C@H](C)[C@H]2NC(=O)O[C@@]21C [Compound 42]	0.5 (≈ 0.534 µM)	0.06 (≈ 0.064 µM)	1 (≈ 1.07 µM)			
CC[C@H]1OC(=O)[C@H](C)[C@@H](OC(=O)C(C)C)[C@H](C)[C@@H](O[C@@H]2O[C@H](C)C[C@H](N(C)C)[C@H]2O)[C@](C)(OC(=O)NC/C=C/C=C/c2cnc(C(C)C)nc2)C[C@@H](C)C(=O)[C@H](C)[C@H]2NC(=O)O[C@@]21C [Compound 44]	2 (≈ 2.22 µM)	0.25 (≈ 0.278 µM)	2 (≈ 2.22 µM)			
CC[C@H]1OC(=O)[C@H](C)[C@@H](OC(=O)C(C)C)[C@H](C)[C@@H](O[C@@H]2O[C@H](C)C[C@H](N(C)C)[C@H]2O)[C@](C)(OC(=O)NC/C=C/c2ccc(-c3cnccn3)cc2)C[C@@H](C)C(=O)[C@H](C)[C@H]2NC(=O)O[C@@]21C [Compound 45]	0.5 (≈ 0.551 µM)	0.06 (≈ 0.0661 µM)	0.5 (≈ 0.551 µM)			
CC[C@H]1OC(=O)[C@H](C)[C@@H](OC(=O)C(C)C)[C@H](C)[C@@H](O[C@@H]2O[C@H](C)C[C@H](N(C)C)[C@H]2O)[C@](C)(OC(=O)NC/C=C/c2ccc(-c3cccnn3)cc2)C[C@@H](C)C(=O)[C@H](C)[C@H]2NC(=O)O[C@@]21C [Compound 46]	0.12 (≈ 0.132 µM)	0.06 (≈ 0.0661 µM)	0.5 (≈ 0.551 µM)			
CC[C@H]1OC(=O)[C@H](C)[C@@H](OC(=O)C(C)C)[C@H](C)[C@@H](O[C@@H]2O[C@H](C)C[C@H](N(C)C)[C@H]2OC(C)=O)[C@](C)(OC(=O)NC/C=C/c2ccc(-n3cccn3)cc2)C[C@@H](C)C(=O)[C@H](C)[C@H]2NC(=O)O[C@@]21C [Compound 48]	0.5 (≈ 0.533 µM)	0.06 (≈ 0.064 µM)	1 (≈ 1.07 µM)			
CC[C@H]1OC(=O)[C@H](C)[C@@H](OC(=O)C(C)C)[C@H](C)[C@@H](O[C@@H]2O[C@H](C)C[C@H](N(C)C)[C@H]2O)[C@](C)(OC(=O)NC/C=C/c2ccc(-c3ccn(C)n3)cc2)C[C@@H](C)C(=O)[C@H](C)[C@H]2NC(=O)O[C@@]21C [Compound 49]	1 (≈ 1.1 µM)	0.06 (≈ 0.0659 µM)	1 (≈ 1.1 µM)			
